According to the NIST ThermoML archive (doi:10.1021/je7003929):

Test: xn = mol fraction of the nth substance listed
Settings: Liquid, Vibrating tube method

c1ccc2sccc2c1 [benzo[b]thiophene] + CCCCCC
Settings | mass density [kg/m3]
352.41 K, 1015 kPa, x2 = 0.0629 | 1076.7
352.41 K, 2020 kPa, x2 = 0.0629 | 1077.4
352.41 K, 3016 kPa, x2 = 0.0629 | 1078.1
352.41 K, 4038 kPa, x2 = 0.0629 | 1078.8
352.41 K, 5000 kPa, x2 = 0.0629 | 1079.5
352.41 K, 6001 kPa, x2 = 0.0629 | 1080.4
352.41 K, 7017 kPa, x2 = 0.0629 | 1081.1
352.41 K, 8008 kPa, x2 = 0.0629 | 1082
352.41 K, 9017 kPa, x2 = 0.0629 | 1082.6
352.41 K, 10026 kPa, x2 = 0.0629 | 1083.4
352.41 K, 11018 kPa, x2 = 0.0629 | 1084.1
352.41 K, 12014 kPa, x2 = 0.0629 | 1084.7
352.41 K, 13014 kPa, x2 = 0.0629 | 1085.4
352.41 K, 14022 kPa, x2 = 0.0629 | 1086.2
352.41 K, 15028 kPa, x2 = 0.0629 | 1086.8
352.41 K, 16020 kPa, x2 = 0.0629 | 1087.6
352.41 K, 17023 kPa, x2 = 0.0629 | 1088.2
352.41 K, 18015 kPa, x2 = 0.0629 | 1088.8
352.41 K, 19016 kPa, x2 = 0.0629 | 1089.5
352.41 K, 20019 kPa, x2 = 0.0629 | 1090.2
352.53 K, 1025 kPa, x2 = 0.9432 | 630.4
352.53 K, 1026 kPa, x2 = 0.7491 | 725.1
352.53 K, 2023 kPa, x2 = 0.9432 | 632.1
352.53 K, 2026 kPa, x2 = 0.7491 | 726.5
352.53 K, 3024 kPa, x2 = 0.7491 | 727.8
352.53 K, 3030 kPa, x2 = 0.9432 | 633.8
352.53 K, 4018 kPa, x2 = 0.9432 | 635.4
352.53 K, 4034 kPa, x2 = 0.7491 | 729.2
352.53 K, 5014 kPa, x2 = 0.7491 | 730.5
352.53 K, 5021 kPa, x2 = 0.9432 | 637
352.53 K, 6018 kPa, x2 = 0.9432 | 638.5
352.53 K, 6040 kPa, x2 = 0.7491 | 731.8
352.53 K, 7010 kPa, x2 = 0.9432 | 639.9
352.53 K, 7028 kPa, x2 = 0.7491 | 733
352.53 K, 8017 kPa, x2 = 0.7491 | 734.3
352.53 K, 8018 kPa, x2 = 0.9432 | 641.4
352.53 K, 9003 kPa, x2 = 0.7491 | 735.5
352.53 K, 9044 kPa, x2 = 0.9432 | 642.8
352.53 K, 10008 kPa, x2 = 0.7491 | 736.7
352.53 K, 10011 kPa, x2 = 0.9432 | 644.2
352.53 K, 11016 kPa, x2 = 0.7491 | 737.9
352.53 K, 11022 kPa, x2 = 0.9432 | 645.5
352.53 K, 12002 kPa, x2 = 0.7491 | 739
352.53 K, 12013 kPa, x2 = 0.9432 | 646.9
352.53 K, 13005 kPa, x2 = 0.9432 | 648.2
352.53 K, 13020 kPa, x2 = 0.7491 | 740.2
352.53 K, 14000 kPa, x2 = 0.9432 | 649.5
352.53 K, 14016 kPa, x2 = 0.7491 | 741.3
352.53 K, 15021 kPa, x2 = 0.9432 | 650.8
352.53 K, 15037 kPa, x2 = 0.7491 | 742.5
352.53 K, 16022 kPa, x2 = 0.9432 | 652
352.53 K, 16035 kPa, x2 = 0.7491 | 743.6
352.53 K, 17001 kPa, x2 = 0.9432 | 653.2
352.53 K, 17020 kPa, x2 = 0.7491 | 744.6
352.53 K, 18013 kPa, x2 = 0.9432 | 654.4
352.53 K, 18020 kPa, x2 = 0.7491 | 745.7
352.53 K, 19007 kPa, x2 = 0.9432 | 655.6
352.53 K, 19008 kPa, x2 = 0.7491 | 746.7
352.53 K, 20019 kPa, x2 = 0.7491 | 747.8
352.53 K, 20039 kPa, x2 = 0.9432 | 656.7
352.63 K, 1037 kPa, x2 = 0.4495 | 874.2
352.63 K, 2029 kPa, x2 = 0.4495 | 875.3
352.63 K, 3026 kPa, x2 = 0.4495 | 876.4
352.63 K, 4032 kPa, x2 = 0.4495 | 877.5
352.63 K, 5015 kPa, x2 = 0.4495 | 878.5
352.63 K, 6024 kPa, x2 = 0.4495 | 879.5
352.63 K, 7028 kPa, x2 = 0.4495 | 880.5
352.63 K, 8017 kPa, x2 = 0.4495 | 881.5
352.63 K, 9003 kPa, x2 = 0.4495 | 882.5
352.63 K, 10022 kPa, x2 = 0.4495 | 883.5
352.63 K, 11024 kPa, x2 = 0.4495 | 884.5
352.63 K, 12013 kPa, x2 = 0.4495 | 885.4
352.63 K, 13038 kPa, x2 = 0.4495 | 886.4
352.63 K, 14000 kPa, x2 = 0.4495 | 887.3
352.63 K, 15021 kPa, x2 = 0.4495 | 888.2
352.63 K, 16012 kPa, x2 = 0.4495 | 889.1
352.63 K, 17010 kPa, x2 = 0.4495 | 890
352.63 K, 18015 kPa, x2 = 0.4495 | 890.9
352.63 K, 19022 kPa, x2 = 0.4495 | 891.8
352.63 K, 20005 kPa, x2 = 0.4495 | 892.7
362.31 K, 1028 kPa, x2 = 0.9432 | 620.3
362.31 K, 2031 kPa, x2 = 0.9432 | 622.2
362.31 K, 3031 kPa, x2 = 0.9432 | 624
362.31 K, 4012 kPa, x2 = 0.9432 | 625.7
362.31 K, 5026 kPa, x2 = 0.9432 | 627.4
362.31 K, 6013 kPa, x2 = 0.9432 | 629.1
362.31 K, 7022 kPa, x2 = 0.9432 | 630.7
362.31 K, 8014 kPa, x2 = 0.9432 | 632.3
362.31 K, 9000 kPa, x2 = 0.9432 | 633.7
362.31 K, 10011 kPa, x2 = 0.9432 | 635.3
362.31 K, 11007 kPa, x2 = 0.9432 | 636.7
362.31 K, 12007 kPa, x2 = 0.9432 | 638.2
362.31 K, 13008 kPa, x2 = 0.9432 | 639.6
362.31 K, 14024 kPa, x2 = 0.9432 | 640.9
362.31 K, 15002 kPa, x2 = 0.9432 | 642.3
362.31 K, 16016 kPa, x2 = 0.9432 | 643.6
362.31 K, 17000 kPa, x2 = 0.9432 | 644.9
362.31 K, 18008 kPa, x2 = 0.9432 | 646.3
362.31 K, 19018 kPa, x2 = 0.9432 | 647.5
362.31 K, 20028 kPa, x2 = 0.9432 | 648.8
362.33 K, 1020 kPa, x2 = 0.7491 | 715.3
362.33 K, 2034 kPa, x2 = 0.7491 | 716.8
362.33 K, 3013 kPa, x2 = 0.7491 | 718.3
362.33 K, 4007 kPa, x2 = 0.7491 | 719.7
362.33 K, 5015 kPa, x2 = 0.7491 | 721.2
362.33 K, 6018 kPa, x2 = 0.7491 | 722.5
362.33 K, 7015 kPa, x2 = 0.7491 | 723.9
362.33 K, 8017 kPa, x2 = 0.7491 | 725.2
362.33 K, 9024 kPa, x2 = 0.7491 | 726.5
362.33 K, 10010 kPa, x2 = 0.7491 | 727.8
362.33 K, 10996 kPa, x2 = 0.7491 | 729.1
362.33 K, 12027 kPa, x2 = 0.7491 | 730.4
362.33 K, 13022 kPa, x2 = 0.7491 | 731.6
362.33 K, 14016 kPa, x2 = 0.7491 | 732.8
362.33 K, 15023 kPa, x2 = 0.7491 | 734
362.33 K, 16012 kPa, x2 = 0.7491 | 735.1
362.33 K, 17011 kPa, x2 = 0.7491 | 736.3
362.33 K, 18012 kPa, x2 = 0.7491 | 737.4
362.33 K, 19030 kPa, x2 = 0.7491 | 738.6
362.33 K, 20017 kPa, x2 = 0.7491 | 739.7
362.5 K, 1028 kPa, x2 = 0.4495 | 864.8
362.5 K, 2025 kPa, x2 = 0.4495 | 866
362.5 K, 3020 kPa, x2 = 0.4495 | 867.1
362.5 K, 4000 kPa, x2 = 0.4495 | 868.2
362.5 K, 5045 kPa, x2 = 0.4495 | 869.3
362.5 K, 6017 kPa, x2 = 0.4495 | 870.4
362.5 K, 7018 kPa, x2 = 0.4495 | 871.5
362.5 K, 8013 kPa, x2 = 0.4495 | 872.5
362.5 K, 9024 kPa, x2 = 0.4495 | 873.6
362.5 K, 10011 kPa, x2 = 0.4495 | 874.6
362.5 K, 11008 kPa, x2 = 0.4495 | 875.6
362.5 K, 12025 kPa, x2 = 0.4495 | 876.6
362.5 K, 13004 kPa, x2 = 0.4495 | 877.6
362.5 K, 14014 kPa, x2 = 0.4495 | 878.6
362.5 K, 15011 kPa, x2 = 0.4495 | 879.6
362.5 K, 16027 kPa, x2 = 0.4495 | 880.6
362.5 K, 17017 kPa, x2 = 0.4495 | 881.5
362.5 K, 18030 kPa, x2 = 0.4495 | 882.5
362.5 K, 19022 kPa, x2 = 0.4495 | 883.4
362.5 K, 20002 kPa, x2 = 0.4495 | 884.3
